Laboratory results published in ChEMBL document CHEMBL1201862, “PubChem BioAssay data set” (2004).
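Dose response: 5 concentrations. Exposure: 48 h. Format: 96-well plates. Endpoint: linear interpolation; highest concentration if not reached. Here, GI50 denotes the concentration required for 50% inhibition of growth.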 Activity calls are given as the source filed them. Cut-off read from the data, not from the text of the source: active = GI50 up to about 1.1 µM and inactive = higher.

Columns and labels:
Assay in all cases: growth of human tumour cells (NCI), 48 h
786-0 = tested on: 786-0
A498 = tested on: A498
A549 = tested on: A549
ACHN = tested on: ACHN
BT-549 = tested on: BT-549
CAKI-1 = tested on: CAKI-1
CCRF-CEM = tested on: CCRF-CEM
COLO 205 = tested on: COLO 205
DU-145 = tested on: DU-145
EKVX = tested on: EKVX
HCC 2998 = tested on: HCC 2998
HCT-116 = tested on: HCT-116
HCT-15 = tested on: HCT-15
HL-60 = tested on: HL-60
HOP-62 = tested on: HOP-62
HOP-92 = tested on: HOP-92
HT-29 = tested on: HT-29
Hs-578T = tested on: Hs-578T
IGROV-1 = tested on: IGROV-1
K562 = tested on: K562
KM12 = tested on: KM12
LOX IMVI = tested on: LOX IMVI
MCF7 = tested on: MCF7
MDA-MB-231 = tested on: MDA-MB-231
MDA-MB-435 = tested on: MDA-MB-435
MDA-N = tested on: MDA-N
MOLT-4 = tested on: MOLT-4
Malme-3M = tested on: Malme-3M
NCI-H226 = tested on: NCI-H226
NCI-H23 = tested on: NCI-H23
NCI-H460 = tested on: NCI-H460
NCI-H522 = tested on: NCI-H522
NCI/ADR-RES = tested on: NCI/ADR-RES
OVCAR-3 = tested on: OVCAR-3
OVCAR-4 = tested on: OVCAR-4
OVCAR-8 = tested on: OVCAR-8
PC-3 = tested on: PC-3
RPMI-8226 = tested on: RPMI-8226
RXF 393 = tested on: RXF 393
SF-268 = tested on: SF-268
SF-295 = tested on: SF-295
SF-539 = tested on: SF-539
SK-MEL-28 = tested on: SK-MEL-28
SK-MEL-5 = tested on: SK-MEL-5
SK-OV-3 = tested on: SK-OV-3
SN12C = tested on: SN12C
SNB-75 = tested on: SNB-75
SR = tested on: SR
SW-620 = tested on: SW-620
T47D = tested on: T47D
TK-10 = tested on: TK-10
U-251 = tested on: U-251
UACC-257 = tested on: UACC-257
UACC-62 = tested on: UACC-62
UO-31 = tested on: UO-31
M14 = tested on: M14
SNB-19 = tested on: SNB-19

How did the GI50 (786-0) turn out when COC(=O)C1(Cc2ccc3c(c2)CCC3)Cc2ccc3c(c2C1)CCC3 (stereo not given) was run?
Its GI50 is 24.5 µM (inactive).

What about the GI50 (A498) of the same compound?
Its GI50 is 22.3 µM (inactive).

What about the GI50 (A549) of the same compound?
Its GI50 is 27.4 µM (inactive).

What about the GI50 (ACHN) of the same compound?
The GI50 was 24.1 µM (inactive).

What about the GI50 (BT-549) of the same compound?
Its GI50 is 21.6 µM (inactive).

And the GI50 (CAKI-1)?
The GI50 was 21.6 µM (inactive).

And the GI50 (CCRF-CEM)?
Its GI50 is 70.6 µM (inactive).

What about the GI50 (COLO 205) of the same compound?
The GI50 was 19 µM (inactive).

And the GI50 (DU-145)?
Its GI50 is 24.8 µM (inactive).

What about the GI50 (EKVX) of the same compound?
Its GI50 is 31.3 µM (inactive).

And the GI50 (HCC 2998)?
Its GI50 is 34.5 µM (inactive).

What about the GI50 (HCT-116) of the same compound?
The GI50 was 18.1 µM (inactive).

And the GI50 (HCT-15)?
The GI50 was 25 µM.

And the GI50 (HL-60)?
Its GI50 is 23.4 µM (inactive).

What about the GI50 (HOP-62) of the same compound?
The GI50 was 30.1 µM (inactive).

And the GI50 (HOP-92)?
The GI50 was 18.7 µM (inactive).

What about the GI50 (HT-29) of the same compound?
The GI50 was 14.9 µM (inactive).

And the GI50 (Hs-578T)?
Its GI50 is 17.4 µM (inactive).

What about the GI50 (IGROV-1) of the same compound?
The GI50 was 21.1 µM (inactive).

What about the GI50 (K562) of the same compound?
The GI50 was 85.5 µM (inactive).

And the GI50 (KM12)?
Its GI50 is 17.7 µM (inactive).

What about the GI50 (LOX IMVI) of the same compound?
Its GI50 is 16.8 µM (inactive).

What about the GI50 (MCF7) of the same compound?
Its GI50 is 13.2 µM (inactive).

And the GI50 (MDA-MB-231)?
The GI50 was 15.6 µM (inactive).

And the GI50 (MDA-MB-435)?
The GI50 was 12.7 µM (inactive).

What about the GI50 (MDA-N) of the same compound?
Its GI50 is 13.2 µM (inactive).

What about the GI50 (MOLT-4) of the same compound?
Its GI50 is 43.3 µM (inactive).

What about the GI50 (Malme-3M) of the same compound?
The GI50 was 16.5 µM (inactive).

What about the GI50 (NCI-H226) of the same compound?
Its GI50 is 21.1 µM (inactive).

And the GI50 (NCI-H23)?
Its GI50 is 1.48 µM (inactive).

What about the GI50 (NCI-H460) of the same compound?
Its GI50 is 24.8 µM (inactive).

What about the GI50 (NCI-H522) of the same compound?
The GI50 was 18.4 µM (inactive).

And the GI50 (NCI/ADR-RES)?
Its GI50 is 20.6 µM (inactive).

What about the GI50 (OVCAR-3) of the same compound?
The GI50 was 20.3 µM (inactive).

What about the GI50 (OVCAR-4) of the same compound?
Its GI50 is 17.2 µM (inactive).

What about the GI50 (OVCAR-8) of the same compound?
Its GI50 is 32.1 µM (inactive).

And the GI50 (PC-3)?
The GI50 was 16.9 µM (inactive).

And the GI50 (RPMI-8226)?
The GI50 was 19.4 µM (inactive).

And the GI50 (RXF 393)?
The GI50 was 24 µM (inactive).

And the GI50 (SF-268)?
The GI50 was 44.4 µM (inactive).

What about the GI50 (SF-295) of the same compound?
The GI50 was 20.7 µM (inactive).

What about the GI50 (SF-539) of the same compound?
The GI50 was 37.9 µM (inactive).

What about the GI50 (SK-MEL-28) of the same compound?
The GI50 was 23.9 µM (inactive).

What about the GI50 (SK-MEL-5) of the same compound?
The GI50 was 16.6 µM (inactive).

What about the GI50 (SK-OV-3) of the same compound?
Its GI50 is 52.8 µM (inactive).

What about the GI50 (SN12C) of the same compound?
The GI50 was 17.5 µM (inactive).

What about the GI50 (SNB-75) of the same compound?
The GI50 was > 100 µM (inactive).

What about the GI50 (SR) of the same compound?
The GI50 was > 10 µM (inactive).

What about the GI50 (SW-620) of the same compound?
Its GI50 is 25.2 µM (inactive).

What about the GI50 (T47D) of the same compound?
The GI50 was 1.47 µM (inactive).

What about the GI50 (TK-10) of the same compound?
Its GI50 is 49.7 µM (inactive).

And the GI50 (U-251)?
The GI50 was 17.3 µM (inactive).

What about the GI50 (UACC-257) of the same compound?
The GI50 was 5.61 µM (inactive).

What about the GI50 (UACC-62) of the same compound?
Its GI50 is 32 µM (inactive).

And the GI50 (UO-31)?
Its GI50 is 18.7 µM (inactive).

CC(=O)OCc1cn(S(=O)(=O)c2ccc(C)cc2)cn1 was tested. Which GI50 (786-0) did it give?
Its GI50 is > 100 µM (inactive).

And the GI50 (A498)?
The GI50 was > 100 µM (inactive).

What about the GI50 (A549) of the same compound?
Its GI50 is 84.5 µM (inactive).

And the GI50 (ACHN)?
The GI50 was > 100 µM (inactive).

What about the GI50 (BT-549) of the same compound?
Its GI50 is > 100 µM (inactive).

What about the GI50 (CAKI-1) of the same compound?
Its GI50 is > 100 µM (inactive).

What about the GI50 (CCRF-CEM) of the same compound?
Its GI50 is 26.7 µM (inactive).

What about the GI50 (COLO 205) of the same compound?
Its GI50 is 73.6 µM (inactive).

What about the GI50 (DU-145) of the same compound?
The GI50 was > 100 µM (inactive).

And the GI50 (EKVX)?
Its GI50 is > 100 µM (inactive).

And the GI50 (HCC 2998)?
The GI50 was > 100 µM (inactive).

And the GI50 (HCT-116)?
The GI50 was 24 µM (inactive).

What about the GI50 (HCT-15) of the same compound?
Its GI50 is 18.5 µM.

And the GI50 (HL-60)?
The GI50 was > 100 µM (inactive).

What about the GI50 (HOP-62) of the same compound?
Its GI50 is > 100 µM (inactive).

What about the GI50 (HOP-92) of the same compound?
The GI50 was > 100 µM (inactive).

What about the GI50 (HT-29) of the same compound?
Its GI50 is 20.7 µM (inactive).

What about the GI50 (Hs-578T) of the same compound?
Its GI50 is 36.5 µM (inactive).

And the GI50 (IGROV-1)?
Its GI50 is > 100 µM (inactive).

What about the GI50 (K562) of the same compound?
Its GI50 is > 100 µM (inactive).

What about the GI50 (LOX IMVI) of the same compound?
The GI50 was 47.5 µM (inactive).

And the GI50 (M14)?
The GI50 was 25.3 µM (inactive).

And the GI50 (MCF7)?
The GI50 was 25.2 µM (inactive).

What about the GI50 (MDA-MB-231) of the same compound?
Its GI50 is > 100 µM (inactive).

And the GI50 (MDA-MB-435)?
Its GI50 is 19.6 µM (inactive).

And the GI50 (MDA-N)?
The GI50 was 12.5 µM (inactive).

What about the GI50 (MOLT-4) of the same compound?
Its GI50 is 46.5 µM (inactive).

And the GI50 (Malme-3M)?
Its GI50 is > 100 µM (inactive).

What about the GI50 (NCI-H226) of the same compound?
Its GI50 is > 100 µM (inactive).

And the GI50 (NCI-H23)?
Its GI50 is > 100 µM (inactive).

And the GI50 (NCI-H460)?
The GI50 was 30.1 µM (inactive).

What about the GI50 (NCI-H522) of the same compound?
Its GI50 is 64 µM (inactive).

And the GI50 (NCI/ADR-RES)?
Its GI50 is > 100 µM (inactive).

And the GI50 (OVCAR-3)?
The GI50 was 24.2 µM (inactive).

What about the GI50 (OVCAR-4) of the same compound?
The GI50 was > 100 µM (inactive).

And the GI50 (OVCAR-8)?
Its GI50 is > 100 µM (inactive).

And the GI50 (PC-3)?
Its GI50 is > 100 µM (inactive).

What about the GI50 (RPMI-8226) of the same compound?
Its GI50 is > 100 µM (inactive).

And the GI50 (RXF 393)?
The GI50 was > 100 µM (inactive).

And the GI50 (SF-268)?
The GI50 was 37.2 µM (inactive).

What about the GI50 (SF-295) of the same compound?
Its GI50 is > 100 µM (inactive).

And the GI50 (SF-539)?
Its GI50 is 16.4 µM (inactive).

What about the GI50 (SK-MEL-28) of the same compound?
Its GI50 is > 100 µM (inactive).

What about the GI50 (SK-MEL-5) of the same compound?
Its GI50 is 46.9 µM (inactive).

And the GI50 (SK-OV-3)?
Its GI50 is > 100 µM (inactive).

What about the GI50 (SN12C) of the same compound?
Its GI50 is > 100 µM (inactive).

What about the GI50 (SNB-19) of the same compound?
The GI50 was > 100 µM (inactive).

And the GI50 (SNB-75)?
The GI50 was > 100 µM (inactive).

What about the GI50 (SR) of the same compound?
The GI50 was 9.51 µM (inactive).

What about the GI50 (SW-620) of the same compound?
The GI50 was 43 µM (inactive).

What about the GI50 (T47D) of the same compound?
The GI50 was > 100 µM (inactive).

And the GI50 (TK-10)?
The GI50 was > 100 µM (inactive).

And the GI50 (U-251)?
The GI50 was > 100 µM (inactive).

And the GI50 (UACC-62)?
The GI50 was 75.2 µM (inactive).

And the GI50 (UO-31)?
The GI50 was > 100 µM (inactive).
